This experiment deals with modified version of the GPR119 receptor (94% identity to human receptor). Kind of experiment: cAMP production assay (LANCE cAMP kit, TR-FRET) in HEK-293 cells. It counts as cell-based. The settings on record: for cAMP production in HEK-293 cells: HEK-293 cells stably expressing modified GPR119, test compounds 0.2 nM to 10 μM, one-hour incubation at ambient temperature; for Fold over baseline: increase in cAMP relative to basal levels, agonist activity if 1.5-fold or greater. In outline: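 Doxycycline-induced (1 μg/mL, overnight) HEK-293 cells expressing modified GPR119 were thawed, 2000 cells/well, and exposed to compounds (0.2 nM-10 μM final, 0.5% DMSO) for 1 h at ambient temperature in HBSS/HEPES/BSA. cAMP was measured by LANCE TR-FRET against a standard curve. Agonism was defined as ≥1.5-fold over basal.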

This note sets out measurements from patent US8754226B2, “Piperidinyl-substituted lactams as GPR119 modulators” (Array BioPharma Inc., priority 2010, dated 2014).

Regarding `CS(=O)(=O)c1cc(F)c(O[C@H]2CCN(C3CCN(c4ncc(-c5ncccn5)cn4)CC3)C2=O)cc1F` [Example 95, (S)-1-(1-(2,5′-bipyrimidin-2′-yl)piperidin-4-yl)-3-(2,5-difluoro-4-(methylsulfonyl)phenoxy)pyrrolidin-2-one], the “cAMP production in HEK-293 cells” value came to 9.0 nmol and the Fold over baseline stood at 2.3.
The like results for `CCc1cnc(N2CCC(N3CC[C@H](Oc4cc(C)c(S(C)(=O)=O)cc4F)C3=O)CC2)nc1` [Example 96, (S)-1-(1-(5-ethylpyrimidin-2-yl)piperidin-4-yl)-3-(2-fluoro-5-methyl-4-(methylsulfonyl)phenoxy)pyrrolidin-2-one] were, in that order, 31.7 nmol and 3.5.
The like results for `CCc1cnc(N2CCC(N3CC[C@H](Oc4cc(C)c(Br)cc4F)C3=O)CC2)nc1` [Example 97, (S)-3-(4-bromo-2-fluoro-5-methylphenoxy)-1-(1-(5-ethylpyrimidin-2-yl)piperidin-4-yl)pyrrolidin-2-one] were, in that order, 15.3 nmol and 2.2.
The like results for `CCc1cnc(N2CCC(N3CC[C@H](Oc4cc(C)c(C#N)cc4F)C3=O)CC2)nc1` [Example 98, (S)-4-(1-(1-(5-ethylpyrimidin-2-yl)piperidin-4-yl)-2-oxopyrrolidin-3-yloxy)-5-fluoro-2-methylbenzonitrile] were, in that order, 31.2 nmol and 3.5.
Take `CS(=O)(=O)c1ccc(N[C@H]2CCN(C3CCN(c4ccc(C(F)(F)F)cn4)CC3)C2=O)c(F)c1` [Example 99, (S)-3-(2-fluoro-4-(methyl-sulfonyl)phenylamino)-1-(1-(5-(trifluoromethyl)pyridin-2-yl)piperidin-4-yl)pyrrolidin-2-one]: the “cAMP production in HEK-293 cells” value was 12.4 nmol and the Fold over baseline was found to be 3.5.
As for `CS(=O)(=O)c1cc(F)c(N[C@H]2CCN(C3CCN(c4ccc(C(F)(F)F)cn4)CC3)C2=O)cc1F` [Example 100, (S)-3-(2,5-difluoro-4-(methylsulfonyl)phenylamino)-1-(1-(5-(trifluoromethyl)pyridin-2-yl)piperidin-4-yl)pyrrolidin-2-one], the “cAMP production in HEK-293 cells” value is 8.4 nmol and the Fold over baseline came to 2.6.
As to `CS(=O)(=O)c1cc(F)c(N[C@H]2CCN(C3CCN(c4ccc(C(F)(F)F)cn4)CC3)C2=O)c(F)c1` [Example 101, (S)-3-(2,6-difluoro-4-(methylsulfonyl)phenylamino)-1-(1-(5-(trifluoromethyl)pyridin-2-yl)piperidin-4-yl)pyrrolidin-2-one], the “cAMP production in HEK-293 cells” value was determined as 6.6 nmol and the Fold over baseline was found to be 2.0.
Turning to `CS(=O)(=O)c1ccc(N[C@H]2CCN(C3CCN(c4ncc(C(F)(F)F)cc4Cl)CC3)C2=O)c(F)c1` [Example 102, (S)-1-(1-(3-chloro-5-(trifluoromethyl)pyridin-2-yl)piperidin-4-yl)-3-(2-fluoro-4-(methylsulfonyl)phenylamino) pyrrolidin-2-one], the “cAMP production in HEK-293 cells” value worked out at 15.5 nmol and the Fold over baseline is 3.4.
For `CS(=O)(=O)c1ccc(N[C@H]2CCN(C3CCN(c4ccc(C(F)(F)F)cn4)CC3)C2=O)c(F)c1` [Example 103, (S)-3-(2-fluoro-4-(methyl-sulfonyl)phenylamino)-1-(1-(5-(trifluoromethyl)pyridin-2-yl)piperidin-4-yl)pyrrolidin-2-one], the “cAMP production in HEK-293 cells” value worked out at 15.4 nmol and the Fold over baseline amounted to 2.7.
The like results for `CS(=O)(=O)c1cc(F)c(N[C@H]2CCN(C3CCN(c4ccc(C(F)(F)F)cn4)CC3)C2=O)cc1F` [Example 104, (S)-3-(2,5-difluoro-4-(methylsulfonyl)phenyl-amino)-1-(1-(5-(trifluoro-methyl)pyridin-2-yl)piperidin-4-yl)pyrrolidin-2-one] were, in that order, 13.5 nmol and 2.8.
